Literature values, collected in US8940275B2, “Nanoparticles based on gadolinium coordination polymers as highly sensitive T1 MRI contrast agents” (Kent State University, priority 2010, dated 2015).

Details: clinical MRI contrast agents; 1.5 T
For `CNC[C@H](O)[C@@H](O)[C@H](O)[C@H](O)CO.CNC[C@H](O)[C@@H](O)[C@H](O)[C@H](O)CO.O=C([O-])CN(CCN(CC(=O)[O-])CC(=O)O)CCN(CC(=O)[O-])CC(=O)O.[Gd+3]` [Magnevist ®], the R1 (typical relaxivity value) is given as 4.3 mM⁻¹ s⁻¹.
For `CCOc1ccc(CC(CN(CCN(CC(=O)[O-])CC(=O)[O-])CC(=O)[O-])N(CC(=O)[O-])CC(=O)[O-])cc1.[Gd+3].[Na+].[Na+]` (stereo not drawn) [Primovist], the R1 (typical relaxivity value) is given as 7.3 mM⁻¹ s⁻¹.
In the case of `CNC(=O)CN(CCN(CCN(CC(=O)[O-])CC(=O)NC)CC(=O)[O-])CC(=O)[O-].[Gd+3]` [Omniscan ®], the R1 (typical relaxivity value) is given as 4.6 mM⁻¹ s⁻¹.
In the case of `CNC[C@H](O)[C@@H](O)[C@H](O)[C@H](O)CO.CNC[C@H](O)[C@@H](O)[C@H](O)[C@H](O)CO.O=C([O-])CN(CCN(CC(=O)[O-])CC(=O)O)CCN(CC(=O)O)C(COCc1ccccc1)C(=O)[O-].[Gd+3]` (stereo not drawn) [MultiHance], the R1 (typical relaxivity value) is listed as 6.7 mM⁻¹ s⁻¹.
For `O=C([O-])CN1CCN(CC(=O)[O-])CCN([C@H](CO)[C@H](O)CO)CCN(CC(=O)[O-])CC1.[Gd+3]` (racemic) [Gadovist ®], the R1 (typical relaxivity value) is listed as 5.3 mM⁻¹ s⁻¹.
For `COCCNC(=O)CN(CCN(CCN(CC(=O)[O-])CC(=O)NCCOC)CC(=O)[O-])CC(=O)[O-].[Gd+3]` [OptiMARK], the R1 (typical relaxivity value) is given as 5.2 mM⁻¹ s⁻¹.
In the case of `CNC[C@H](O)[C@@H](O)[C@H](O)[C@H](O)CO.O=C([O-])CN1CCN(CC(=O)[O-])CCN(CC(=O)O)CCN(CC(=O)[O-])CC1.[Gd+3]` [Dotarem ®], the R1 (typical relaxivity value) is listed as 4.2 mM⁻¹ s⁻¹.
In the case of `CC(O)CN1CCN(CC(=O)[O-])CCN(CC(=O)[O-])CCN(CC(=O)[O-])CC1.[Gd+3]` (stereo not drawn) [ProHance ®], the R1 (typical relaxivity value) is listed as 4.4 mM⁻¹ s⁻¹.

Details: commercial agents, field not given
For `CNC[C@H](O)[C@@H](O)[C@H](O)[C@H](O)CO.CNC[C@H](O)[C@@H](O)[C@H](O)[C@H](O)CO.O=C([O-])CN(CCN(CC(=O)[O-])CC(=O)O)CCN(CC(=O)[O-])CC(=O)O.[Gd+3]` [Magnevist ®], the r1 is listed as 4.3 mM⁻¹ s⁻¹.
